Assay results: patent US7109193B2, “Tricyclic diazepines tocolytic oxytocin receptor antagonists” (Wyeth, priority 2001, dated 2006)

Molecular target: T1, human vasopressin V1a receptor subtype (Homo sapiens, UniProt P37288)
T1 construct: host or cells: CHO cells (pZeoSV vector for the Thibonnier line)
T1 sequence (P37288 whole entry): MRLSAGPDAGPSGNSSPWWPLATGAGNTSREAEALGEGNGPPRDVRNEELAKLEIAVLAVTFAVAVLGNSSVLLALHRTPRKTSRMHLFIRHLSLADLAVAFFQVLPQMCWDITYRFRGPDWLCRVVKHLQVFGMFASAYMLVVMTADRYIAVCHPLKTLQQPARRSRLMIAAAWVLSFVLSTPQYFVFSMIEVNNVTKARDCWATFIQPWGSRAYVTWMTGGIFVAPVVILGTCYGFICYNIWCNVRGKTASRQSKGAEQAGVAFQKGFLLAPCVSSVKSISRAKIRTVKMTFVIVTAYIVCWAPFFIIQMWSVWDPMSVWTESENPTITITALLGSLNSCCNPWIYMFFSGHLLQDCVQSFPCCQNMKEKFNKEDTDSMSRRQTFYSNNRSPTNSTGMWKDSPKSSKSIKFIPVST
Experiment: Vasopressin binding in Chinese Hamster Ovary cell membranes expressing human vasopressin V1a subtype receptors
Conditions: 100 nM, CHO cell membranes, [3H]Manning ligand, values without parentheses
How it was run: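 Displacement of [3H]Manning ligand (8 nM working solution) from human V1a receptors in CHO cell membranes, 25–50 μg protein per well. Incubation ran 60 min at room temperature in 50 mM Tris-HCl pH 7.4 with protease inhibitors, followed by filtration and scintillation counting. Results are given as IC50 or percent inhibition.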
With `COc1cc2c(cc1OC)N(C(=O)c1ccc(-c3ccccc3C(F)(F)F)c(C)c1)Cc1cccn1C2` [Example 12, 7,8-Dimethoxy-[10,11-dihydro-5H-pyrrolo[2,1-c][1,4]benzodiazepin-10-yl][2-methyl-2′-(trifluoromethyl)[1,1′-biphenyl]-4-yl]methanone] the inhibition at 0.1 µM was -10%. `Cc1cc(C(=O)N2Cc3ccc(C(=O)N(C)C4CCN(C)CC4)n3Cc3ccccc32)ccc1-c1ccccc1C(F)(F)F` [Example 184, N-Methyl-N-(1-methyl-4-piperidinyl)-10-{[2-methyl-2′-(trifluoromethyl)[1,1′-biphenyl]-4-yl]carbonyl}-10,11-dihydro-5H-pyrrolo[2,1-c][1,4]benzodiazepine-3-carboxamide] gave an inhibition at 0.1 µM of 0%. Compound `Cc1ccccc1-c1ccc(C(=O)N2Cc3ccc(C(=O)N(C)C4CCN(C)C4)n3Cc3ccccc32)cc1` (centres unmarked) [Example 188, N-Methyl-10-[(2′-methyl[1,1′-biphenyl]-4-yl)carbonyl]-N-(1-methyl-3-pyrrolidinyl)-10,11-dihydro-5H-pyrrolo[2,1-c][1,4]benzodiazepine-3-carboxamide] has an inhibition at 0.1 µM of 89%. Compound `COc1ccccc1-c1ccc(C(=O)N2Cc3ccc(C(=O)NCCN4CCCCC4)n3Cc3ccccc32)cc1OC` [Example 158, 10-[(2,2′-Dimethoxy[1,1′-biphenyl]-4-yl)carbonyl]-N-[2-(1-piperidinyl)ethyl]-10,11-dihydro-5H-pyrrolo[2,1-c][1,4]benzodiazepine-3-carboxamide] has an inhibition at 0.1 µM of 16%. For `COc1ccccc1-c1ccc(C(=O)N2Cc3ccc(C(=O)N4CCN(C(C)C)CC4)n3Cc3ccccc32)cc1` [Example 234, (4-Isopropyl-1-piperazinyl){10-[(2′-methoxy[1,1′-biphenyl]-4-yl)carbonyl]-10,11-dihydro-5H-pyrrolo[2,1-c][1,4]benzodiazepin-3-yl}methanone], the inhibition at 0.1 µM was 26%. Work on `C=CCN1CCN(C(=O)c2ccc3n2Cc2ccccc2N(C(=O)c2ccc(-c4ccccc4OC)c(C)c2)C3)CC1` [Example 222, (4-Allyl-1-piperazinyl){10-[(2′-methoxy-2-methyl[1,1′-biphenyl]-4-yl)carbonyl]-10,11-dihydro-5H-pyrrolo[2,1-c][1,4]benzodiazepin-3-yl}methanone] yielded an inhibition at 0.1 µM of 15%. For `COc1cc(C(=O)N2Cc3ccc(C(=O)N4CCN(CCN5CCOCC5)CC4)n3Cc3ccccc32)ccc1-c1cccc2ccccc12` [Example 213, {10-[3-Methoxy-4-(1-naphthyl)benzoyl]-10,11-dihydro-5H-pyrrolo[2,1-c][1,4]benzodiazepin-3-yl}{4-[2-(4-morpholinyl)ethyl]-1-piperazinyl}methanone], the inhibition at 0.1 µM was 12%. In the case of `COc1cc(C(=O)N2Cc3ccc(C(=O)N(C)C4CCN(C)C4)n3Cc3ccccc32)ccc1-c1ccccc1C` (centres unmarked) [Example 189, 10-[(2-Methoxy-2′-methyl[1,1′-biphenyl]-4-yl)carbonyl]-N-methyl-N-(1-methyl-3-pyrrolidinyl)-10,11-dihydro-5H-pyrrolo[2,1-c][1,4]benzodiazepine-3-carboxamide], the inhibition at 0.1 µM is reported as 83%. For `COc1cc(C(=O)N2Cc3ccc(C(=O)N4CCN(CCN(C)C)CC4)n3Cc3ccccc32)ccc1-c1cccc2ccccc12` [Example 203, {4-[2-(Dimethylamino)ethyl]-1-piperazinyl}{10-[3-methoxy-4-(1-naphthyl)benzoyl]-10,11-dihydro-5H-pyrrolo[2,1-c][1,4]benzodiazepin-3-yl}methanone], the inhibition at 0.1 µM was 4%. In the case of `COc1cc(C(=O)N2Cc3ccc(C(=O)N(C)C4CCN(C)CC4)n3Cc3ccccc32)ccc1-c1ccccc1C` [Example 179, 10-[(2-Methoxy-2′-methyl[1,1′-biphenyl]-4-yl)carbonyl]-N-methyl-N-(1-methyl-4-piperidinyl)-10,11-dihydro-5H-pyrrolo[2,1-c][1,4]benzodiazepine-3-carboxamide], the inhibition at 0.1 µM is reported as 73%. `COc1ccccc1-c1ccc(C(=O)N2Cc3ccc(C(=O)N(C)C4CCN(C)CC4)n3Cc3ccccc32)cc1C` [Example 175, 10-[(2′-Methoxy-2-methyl[1,1′-biphenyl]-4-yl)carbonyl]-N-methyl-N-(1-methyl-4-piperidinyl)-10,11-dihydro-5H-pyrrolo[2,1-c][1,4]benzodiazepine-3-carboxamide] gave an inhibition at 0.1 µM of 28%. With `COc1ccccc1-c1ccc(C(=O)N2Cc3ccc(C(=O)O)n3Cc3ccccc32)cc1C` [Example 9, 10-[(2′-Methoxy-2-methyl-[1,1′-biphenyl]-4-yl)carbonyl]-10,11-dihydro-5H-pyrrolo[2,1-c][1,4]benzodiazepine-3-carboxylic acid] the inhibition at 0.1 µM was 10%. `COc1cc(-c2ccccc2C(F)(F)F)c(Cl)cc1C(=O)N1Cc2ccc(C(=O)O)n2Cc2ccccc21` [Example 15, 10-{[6-Chloro-3-methoxy-2′-trifluoromethyl-[1,1′-biphenyl]-4-yl]carbonyl}-10,11-dihydro-5H-pyrrolo[2,1-c][1,4]benzodiazepine-3-carboxylic acid] showed an inhibition at 0.1 µM of -8%. In the case of `COc1cc(C(=O)N2Cc3ccc(C(=O)N4CCN(CCN5CCOCC5)CC4)n3Cc3ccccc32)ccc1-c1ccccc1C` [Example 210, {10-[(2-Methoxy-2′-methyl[1,1′-biphenyl]-4-yl)carbonyl]-10,11-dihydro-5H-pyrrolo[2,1-c][1,4]benzodiazepin-3-yl}{4-[2-(4-morpholinyl)ethyl]-1-piperazinyl}methanone], the inhibition at 0.1 µM is reported as 39%. With `COc1ccccc1-c1ccc(C(=O)N2Cc3ccc(C(=O)N(C)C4CCN(C)C4)n3Cc3ccccc32)cc1` (centres unmarked) [Example 187, 10-[(2′-Methoxy[1,1′-biphenyl]-4-yl)carbonyl]-N-methyl-N-(1-methyl-3-pyrrolidinyl)-10,11-dihydro-5H-pyrrolo[2,1-c][1,4]benzodiazepine-3-carboxamide] the inhibition at 0.1 µM was 81%. `COc1cc(-c2ccccc2C)c(Cl)cc1C(=O)N1Cc2ccc(C(=O)NCCC3CCCN3C)n2Cc2ccccc21` (centres unmarked) [Example 168, 10-[(6-Chloro-3-methoxy-2′-methyl[1,1′-biphenyl]-4-yl)carbonyl]-N-[2-(1-methyl-2-pyrrolidinyl)ethyl]-10,11-dihydro-5H-pyrrolo[2,1-c][1,4]benzodiazepine-3-carboxamide] gave an inhibition at 0.1 µM of 8%. In the case of `COc1ccccc1-c1ccc(C(=O)N2Cc3ccc(C(=O)NCCC4CCCN4C)n3Cc3ccccc32)cc1OC` (centres unmarked) [Example 171, 10-[(2,2′-Dimethoxy[1,1′-biphenyl]-4-yl)carbonyl]-N-[2-(1-methyl-2-pyrrolidinyl)ethyl]-10,11-dihydro-5H-pyrrolo[2,1-c][1,4]benzodiazepine-3-carboxamide], the inhibition at 0.1 µM is reported as 14%.

Test system: not given
Experiment: not given
Conditions: not given
For `COc1cc2c(cc1OC)N(C(=O)c1ccc(-c3ccccc3C(F)(F)F)c(C)c1)Cc1cccn1C2` [Example 12, 7,8-Dimethoxy-[10,11-dihydro-5H-pyrrolo[2,1-c][1,4]benzodiazepin-10-yl][2-methyl-2′-(trifluoromethyl)[1,1′-biphenyl]-4-yl]methanone], the melting point was 187 to 188 °C. In the case of `COc1ccccc1-c1ccc(C(=O)N2Cc3ccc(C(=O)O)n3Cc3ccccc32)cc1C` [Example 9, 10-[(2′-Methoxy-2-methyl-[1,1′-biphenyl]-4-yl)carbonyl]-10,11-dihydro-5H-pyrrolo[2,1-c][1,4]benzodiazepine-3-carboxylic acid], the melting point is reported as 174 to 184 °C. In the case of `COc1cc(-c2ccccc2C(F)(F)F)c(Cl)cc1C(=O)N1Cc2ccc(C(=O)O)n2Cc2ccccc21` [Example 15, 10-{[6-Chloro-3-methoxy-2′-trifluoromethyl-[1,1′-biphenyl]-4-yl]carbonyl}-10,11-dihydro-5H-pyrrolo[2,1-c][1,4]benzodiazepine-3-carboxylic acid], the melting point is reported as 220 to 222 °C (dec.).
